Data reported in US9006253B2, “Crystal of 2-(3,4-dichlorobenzyl)-5-methyl-4-oxo-3,4-dihydrothieno[2,3-D]pyrimidine-6-carboxylic acid” (ASKA Pharmaceutical Co., Ltd., priority 2010, dated 2015).
≈ marks a conversion by molar mass, not a printed value. Read-outs that look alike come from different tables or passages of the source.

Tests used:
Photostability test = assay type: physicochemical; details: xenon lamp 18 million Lxs, exposed to light for 8 hr
Description: Form I crystal, Form II crystal and amorphous form of compound A were subjected to a photostability test under the following conditions. The results are shown in FIG. 17. light source: xenon lamp 18 million Lxs
conditions: sample (6 mg) was weighed in a transparent sample bottle, and exposed to light for 8 hr.
HPLC conditions: same as in Experimental Example 1

[1] = Thermal stability (decomposition product by HPLC, colour after heating); assay type: physicochemical; details: 6 hr; for amount of the decomposition product (decarboxylation substance of compound A): HPLC
Description: Form I crystal obtained in Example 1 and Form II crystal obtained in Example 2 and amorphous compound A obtained in Production Example 1 were heated at 100° C. for 6 hr or 200° C. for 6 hr, and the amount of the decomposition product 2-(3,4-dichlorobenzyl)-5-methyl-4-oxo-3,4-dihydrothieno[2,3-d]pyrimidine (decarboxylation substance of compound A) was measured by HPLC. In the HPLC measurement, the sample was suspended in a mobile phase, dissolved by adding 1 equivalent of aqueous sodium hydroxide and then applied.
HPLC Measurement Condition measuring apparatus: Waters Alliance HPLC system detector: ultraviolet absorption spectrophotometer (measurement wavelength 225 nm) column: XBridge C18 (Waters) column temperature: constant temperature near 30° C. mobile phase A: acetonitrile mobile phase B: 5 mmol/L ammonium hydrogen carbonate (pH 8.0) gradient method of mobile phase A and mobile phase B: mobile phase A 23% (0 to 15 min), mobile phase A 23%→55% (15 to 30 min), mobile phase A 55% (30 to 50 min)

Dog absorption test = assay type: in vivo; details: 0.3 mg/kg oral administration, average
Description: Form I crystal, Form II crystal and amorphous form of compound A were subjected to a dog absorption test under the following conditions.
sample: except for amorphous form, samples of Form I crystal and Form II crystal sieved to have a particle size of 20 to 63 μm by wet classification (two kinds of sieves and flowing water were used) were used.
Preparation method: 25 mL of water was added to a sample (3 g), and the mixture was gently pulverized in a mortar, classified under pressurization, and draught-dried. As amorphous form, a sample pulverized in agate mortar was used.
method: 9 dogs, 3×3 crossover, 0.3 mg/kg oral administration

[2] = Solubility in 0.5% aqueous Tween80 solution at 37° C.; assay type: physicochemical; details: for time at which near saturation was reached: stirring; for solubility: value of 3 hr
Description: Form I crystal obtained in Example 1, Form II crystal obtained in Example 2 and amorphous compound A obtained in Production Example 1 (each 50 mg) were suspended in 0.5% aqueous Tween80 solution (20 mL), sonicated, aqueous 0.5% Tween80 solution (180 mL) was added and the mixture was stirred at 37° C.
The solubility was measured by HPLC under the same conditions (isocratic method using acetonitrile/5 mmol/L ammonium hydrogen carbonate (pH 8.0) (27:73) for mobile phase) as in Experimental Example 1 at the time points of 0.5 hr, 1 hr, 2 hr, 3 hr, 4 hr, 5 hr, and 6 hr from the start of stirring. As a result, amorphous compound A reached near saturation at about 0.5 hr, Form I crystal reached near saturation at about 1 hr and Form II crystal reached near saturation at about 2 hr. Therefore, the value of 3 hr was taken as the solubility. The results are shown in Table 11 below together with the results of the following Experimental Example 3.

[3] = Dissolution rate (disc, Paddle Method); assay type: physicochemical; details: 100 mg disc (diameter 12 mm), 0.5% aqueous Tween80 solution 900 mL, 37° C., Paddle Method 50 rpm
Description: Form I crystal obtained in Example 1, Form II crystal obtained in Example 2 and amorphous compound A obtained in Production Example 1 (each 100 mg) were compression molded by a tableting machine for IR measurement having a metal mold pre-treated with magnesium stearate, and formed into discs (diameter 12 mm). Each disc was added to 0.5% aqueous Tween80 solution (900 mL, 37° C.), the concentration was measured every 10 minutes up to 1 hr, and every 1 hour after 1 hr up to 3 hr, by HPLC under the same conditions as in Experimental Example 1 (isocratic method using acetonitrile/5 mmol/L ammonium hydrogen carbonate (pH 8.0) (27:73) for mobile phase) while maintaining the temperature at 37° C. according to the dissolution test apparatus Paddle Method (50 rpm), and each dissolution rate was calculated. The results are shown in Table 11 below together with the results of the above-mentioned Experimental Example 2.

PDE5 = PDE5 (Homo sapiens, UniProt O76074); details: as described in WO 2006/135080; cited from earlier work
PDE9 = PDE9 (Homo sapiens, UniProt O76083); details: as described in WO 2006/135080; cited from earlier work
PDE9, sequence (O76083 whole entry): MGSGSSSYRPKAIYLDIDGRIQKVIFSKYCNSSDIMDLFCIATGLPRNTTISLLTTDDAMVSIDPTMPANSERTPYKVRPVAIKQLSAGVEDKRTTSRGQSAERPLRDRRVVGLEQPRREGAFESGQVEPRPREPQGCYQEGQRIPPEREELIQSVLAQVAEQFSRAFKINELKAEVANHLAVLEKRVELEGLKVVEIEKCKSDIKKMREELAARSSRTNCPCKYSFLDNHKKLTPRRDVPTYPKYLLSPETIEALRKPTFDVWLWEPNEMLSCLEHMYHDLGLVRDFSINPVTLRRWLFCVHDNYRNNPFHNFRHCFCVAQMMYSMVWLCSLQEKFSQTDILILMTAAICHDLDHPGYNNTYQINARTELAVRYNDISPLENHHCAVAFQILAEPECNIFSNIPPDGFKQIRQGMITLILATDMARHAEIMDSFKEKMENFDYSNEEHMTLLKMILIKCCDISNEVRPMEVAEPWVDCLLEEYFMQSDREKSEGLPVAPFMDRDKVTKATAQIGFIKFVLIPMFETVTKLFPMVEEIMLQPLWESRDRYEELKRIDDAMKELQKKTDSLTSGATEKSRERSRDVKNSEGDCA

SMILES: Cc1c(C(=O)O)sc2nc(Cc3ccc(Cl)c(Cl)c3)[nH]c(=O)c12 [Amorphous form, 2-(3,4-dichlorobenzyl)-5-methyl-4-oxo-3,4-dihydrothieno[2,3-d]pyrimidine-6-carboxylic acid]
- impurity after light exposure (Photostability test; HPLC): exceeding 0.2%
- color of sample ([1]; heated at 100° C.): slight brown
- amount of the decomposition product (decarboxylation substance of compound A) ([1]; heated at 100° C.): 0.006%,
- color of sample ([1]; heated at 200° C.): pale-brown
- amount of the decomposition product (decarboxylation substance of compound A) ([1]; heated at 200° C.): 3.42%,
- AUC0-t (Dog absorption test): 62.9 ng·h/mL
- AUCinf (Dog absorption test): 63.4 ng·h/mL
- Cmax (Dog absorption test): 10.3 ng/mL
- MRT (Dog absorption test): 6.31 h
- T1/2 (Dog absorption test): 3.05 h
- Tmax (Dog absorption test): 3.78 h
- time at which near saturation was reached ([2]; listed as amorphous compound A): about 0.5 hr
- solubility [2]: 37 µg/mL (≈ 100 µM)
- dissolution rate [3]: 0.0052 µg/mL/min

SMILES: Cc1c(C(=O)O)sc2nc(Cc3ccc(Cl)c(Cl)c3)[nH]c(=O)c12 [Form I crystal, 2-(3,4-dichlorobenzyl)-5-methyl-4-oxo-3,4-dihydrothieno[2,3-d]pyrimidine-6-carboxylic acid]
- photostability (Photostability test): comparatively stable
- color of sample ([1]; heated at 100° C.): white
- amount of the decomposition product (decarboxylation substance of compound A) ([1]; heated at 100° C.): 0%
- color of sample ([1]; heated at 200° C.): slight brown
- amount of the decomposition product (decarboxylation substance of compound A) ([1]; heated at 200° C.): 0.05%,
- AUC0-t (Dog absorption test): 64.6 ng·h/mL
- AUCinf (Dog absorption test): 65.6 ng·h/mL
- Cmax (Dog absorption test): 9.1 ng/mL
- half-life (Dog absorption test; in vivo, po, 0.3 mg/kg): 3.5 h
- MRT (Dog absorption test; in vivo, po, 0.3 mg/kg, read-out: MRT): 6.73 h
- Tmax (Dog absorption test; in vivo, po, 0.3 mg/kg, read-out: Tmax): 3.06 h
- time at which near saturation was reached [2]: about 1 hr
- solubility [2]: 15 µg/mL (≈ 40.6 µM)
- dissolution rate [3]: 0.0017 µg/mL/min

SMILES: Cc1c(C(=O)O)sc2nc(Cc3ccc(Cl)c(Cl)c3)[nH]c(=O)c12 [Form II crystal, 2-(3,4-dichlorobenzyl)-5-methyl-4-oxo-3,4-dihydrothieno[2,3-d]pyrimidine-6-carboxylic acid]
- photostability (Photostability test): comparatively stable
- color of sample ([1]; heated at 100° C.): white
- amount of the decomposition product (decarboxylation substance of compound A) ([1]; heated at 100° C.): 0%
- color of sample ([1]; heated at 200° C.): slight brown
- amount of the decomposition product (decarboxylation substance of compound A) ([1]; heated at 200° C.): 0.07%,
- AUC0-t (Dog absorption test): 24.2 ng·h/mL
- AUCinf (Dog absorption test): 24.2 ng·h/mL
- Cmax (Dog absorption test): 3.7 ng/mL
- MRT (Dog absorption test): 6.89 h
- T1/2 (Dog absorption test): 3.32 h
- Tmax (Dog absorption test): 3.44 h
- time at which near saturation was reached [2]: about 2 hr
- solubility [2]: 10 µg/mL (≈ 27.1 µM)
- dissolution rate [3]: 0.0011 µg/mL/min

SMILES: Cc1c(C(=O)O)sc2nc(Cc3ccc(Cl)c(Cl)c3)[nH]c(=O)c12 [Compound A, 2-(3,4-dichlorobenzyl)-5-methyl-4-oxo-3,4-dihydrothieno[2,3-d]pyrimidine-6-carboxylic acid]
- PDE5 inhibitory action (PDE5): mild PDE5 inhibitory action
- PDE9 inhibitory action (PDE9): high PDE9 inhibitory action
